Reference: patent publication US20080255215A1, “Combinations of Alkylalkanolamines and Alkylbisalkanolamines for Antimicrobial Compositions” (priority 2005, published 2008)

How the values were obtained:
[1] = test system: Pseudomonas aerguinosa (ATCC 27853); assay: End-point absorbance assay of bacterial growth in 384 well microtiter plate, single amines with KATHON 886MW biocide; type: cell-based; details: for Effectiveness as an enhancer for the biocide: amine 400 ppm with KATHON 886MW up to 50 ppm, assessment in words; for End-point absorbance (660 nm): amine 400 ppm, 48 hours growth, pH 8.5
Experimental: A kinetic assay of bacterial growth in a 384 well microtiter plate was monitored by absorbance at 660 nm. The bacteria was Pseudomonas aerguinosa (ATCC 27853). The organism was grown overnight in Trypticase Soy Broth (TSB), pelleted, and resuspended in new medium at half its original density. The final inoculum was determined from plate counts on Trypticase Soy Agar (TSA) plates spread at the time of use as 4.5×10E10 CFU/mL. Each well of the microtiter plate (well volume=75 μL) was filled with 25 μL of a buffered aqueous solution of the amine being tested at the concentration necessary to yield the desired test concentration after dilution, enough Tris buffer to keep the well pH at 8.5, 25 μL of a biocide solution, and 25 μL reconstituted bacterial culture. The biocide solution and bacterial inoculum were mixed with TSB nutrient. The biocide utilized was KATHON 886MW (supplied by Rohm & Haas Company, Springhouse, Pa.). KATHON 886 MW is a 15% active solution of ⅔ CMIT (5-chloro-2-methyl-4-isothiazolin-3-one) and ⅓ MIT (2-methyl-4-isothiazolin-3-one). The experimental assessment of bacterial growth was made through an end-point absorbance measurement taken after 48 hours of growth in the various media. The concentration of the 4 different amines was 400 ppm. The concentration of the biocide was an experimental variable. The amines employed in this experiment were decyloxypropylaminopropylamine (DOPAPA), octylaminoethanol (OAE, a compound according to formula I), octyldiethanolamine (ODEA, a compound according to formula II), and dicyclohexylamine (DCHA). All absorbance values are the averages of at least three replicates.

[2] = test system: Pseudomonas aerguinosa (ATCC 15442); assay: Kinetic absorbance assay of bacterial growth (maximum growth slope), amines and amine pairs with KATHON 886MW biocide; type: cell-based; details: KATHON 100 ppm; for Maximum Growth Slope: pH 8.5
Experimental: A kinetic assay was run via absorbance measurements in a 384 well micro-titer plate with 75 μL) plate volume. Pseudomonas aerguinosa (ATCC 15442) was used as the inoculum for this kinetic assay. The organism was grown overnight in Trypticase Soy broth, pelleted, and resuspended in new medium at half its original density. The final inoculum was determined from plate counts on TSA plates spread at the time of use as 8.0×10E10 CFU/mL Each well of the microtiter plate (well volume=75 μL) was filled with 25 μL of a buffered aqueous solution of the amine being tested at the concentration necessary to yield the desired test concentration after dilution, enough Tris buffer to keep the well pH at 8.5, 25 μL of a biocide solution, and 25 μL reconstituted bacterial culture. The pH was adjusted to 8.5 with the buffer. The biocide was KATHON 886MW. The following amines were tested: butylaminoethanol (BAE, a compound according to formula I), butyldiethanolamine (BDEA, a compound according to formula II), octylaminoethanol (OAE, a compound according to formula I), and octyldiethanolamine (ODEA, a compound according to formula II), all at 99% purity): […]
The columns were laid out as follows:
The experiment ran for 20 hours with absorbance measurements taken once every 15 minutes. The data was processed by taking 10 point maximum growth slopes (milliOD per minute) after a 3 hour delay. The results of the above series are shown in FIG. 1, and selected data are tabulated in Table 2, in which biocide (KATHON) was used at a 100 ppm level.

[3] = amine 2000 ppm, 10 point maximum slope after 3 hour delay

Compound	Effectiveness as an enhancer for the biocide [1]	End-point absorbance (660 nm) ([1]; KATHON 886MW loading 0 ppm)	End-point absorbance (660 nm) ([1]; KATHON 886MW loading 12 ppm)	End-point absorbance (660 nm) ([1]; KATHON 886MW loading 25 ppm)	End-point absorbance (660 nm) ([1]; KATHON 886MW loading 50 ppm)	Maximum Growth Slope ([2]; amine 1000 ppm)	Maximum Growth Slope [2, 3]	Maximum Growth Slope ([2]; amine 250 ppm)	Maximum Growth Slope ([2]; amine 500 ppm)	Comparative effectiveness (runs of Table 2) ([2]; assessment in words)
CCCCCCCCCCOCCCNCCCN [DOPAPA, decyloxypropylaminopropylamine, reference compound]	weak or ineffective	app. 0.3	app. 0.3	app. 0.3	app. 0.3					
CCCCN(CCO)CCO [BDEA, butyldiethanolamine]						1.3 MilliOD/min	0.8 MilliOD/min			
CCCCCCCCN(CCO)CCO [ODEA, octyldiethanolamine]	moderately effective enhancer	0.12	0.08	0.08	0.03			0.6 MilliOD/min	0.4 MilliOD/min	
C1CCC(NC2CCCCC2)CC1 [DCHA, dicyclohexylamine, reference compound]	marginal enhancer	0.14	0.14	0.10	0.07					
CCCCNCCO [BAE, butylaminoethanol]						0.9 MilliOD/min	0.4 MilliOD/min			more effective than BDEA alone
CCCCCCCCNCCO [OAE, octylaminoethanol]	excellent enhancer	0	0	0	0			0.4 MilliOD/min	−0.1 MilliOD/min	
